In US20160193219A1, “SUBSTITUTED 2,3-DIHYDROIMIDAZO[1,2-C]QUINAZOLINE SALTS” (priority 2011, published 2016):
Where two headings read alike, the source gives them in different places.

Experiments:
PC3 = assay: Proliferation assay (Cell Titer-Glo, 72 h), PC3; conditions: Homo sapiens, PC-3, 72 h, PC3, Prostate
LNCaP = assay: Proliferation assay (Cell Titer-Glo, 72 h), LNCaP; conditions: Homo sapiens, 72 h, Prostate
SK-Br-3 = assay: Proliferation assay (Cell Titer-Glo, 72 h), SK-Br-3; conditions: Homo sapiens, SK-BR-3, 72 h, SK-Br-3, Breast
HT29 = assay: Proliferation assay (Cell Titer-Glo, 72 h), HT29; conditions: HT29, Colon, listed as free base
786O = assay: Proliferation assay (Cell Titer-Glo, 72 h), 786O; conditions: Kidney, listed as free base
MDA-MB-468 = assay: Proliferation assay (Cell Titer-Glo, 72 h), MDA-MB-468; conditions: MDA-MB-468, Breast, listed as free base
Colo205 = assay: Proliferation assay (Cell Titer-Glo, 72 h), Colo205; conditions: Colo205, Colon, listed as free base
T47D = assay: Proliferation assay (Cell Titer-Glo, 72 h), T47D; conditions: Breast, listed as free base
HCT116 = assay: Proliferation assay (Cell Titer-Glo, 72 h), HCT116; conditions: Homo sapiens, HCT-116, 72 h, HCT116, Colon
A549 = assay: Proliferation assay (Cell Titer-Glo, 72 h), A549; conditions: Homo sapiens, A549, 72 h, A549, Lung
KPL4 = assay: Proliferation assay (Cell Titer-Glo, 72 h), KPL4; conditions: KPL4, 72 h
BT20 = assay: Proliferation assay (Cell Titer-Glo, 72 h), BT20; conditions: BT20, Breast, listed as free base
H460 = assay: Proliferation assay (Cell Titer-Glo, 72 h), H460; conditions: Homo sapiens, NCI-H460, 72 h, H460, Lung
BT474 = assay: Proliferation assay (Cell Titer-Glo, 72 h), BT474; conditions: Homo sapiens, BT-474, 72 h, BT474, Breast
[1] = Stability as solid (stored at 90° C. for 1 week, HPLC); format: physicochemical
MCF7 = assay: Proliferation assay (Cell Titer-Glo, 72 h), MCF7; conditions: MCF7, Breast, listed as free base
U87MG = assay: Proliferation assay (Cell Titer-Glo, 72 h), U87MG; conditions: Homo sapiens, U-87 MG

`COc1c(OCCCN2CCOCC2)ccc2c1N=C(NC(=O)c1cnc(N)nc1)N1CCN=C21` [compound of formula (I), 2-amino-N-[7-methoxy-8-(3-morpholin-4-ylpropoxy)-2,3-dihydroimidazo[1,2-c]quinazolin-5-yl]pyrimidine-5-carboxamide] showed an IC50 (PC3) of 100 nM, an IC50 (LNCaP) of 69 nM and an IC50 (SK-Br-3) of 2 nM. The IC50 (HT29) was 27 nM, the IC50 (786O) was 116 nM and the IC50 (MDA-MB-468) was 760 nM. It also gave an IC50 (Colo205) of 48 nM, an IC50 (T47D) of 6 nM and an IC50 (HCT116) of 56 nM. For the same compound, the Appearance (0.1M HCl, 1 week, 25° C.) was “slightly colored solution”, the “Organic impurities, single” value (0.1M HCl, 1 week, 25° C.) was 7.15 Area % and the “Organic impurities, sum of all” value (0.1M HCl, 1 week, 25° C.) was 24.27 Area %. The Appearance (0.1M HCl, 1 week, 70° C.) was “slightly colored solution”, the “Organic impurities, single” value (0.1M HCl, 1 week, 70° C.) was 25.48 Area % and the “Organic impurities, sum of all” value (0.1M HCl, 1 week, 70° C.) was 100.00 Area %. For the same compound, the Appearance (0.1M HCl, 24 h, 25° C.) was “slightly colored solution”, the “Organic impurities, single” value (0.1M HCl, 24 h, 25° C.) was 1.90 Area % and the “Organic impurities, sum of all” value (0.1M HCl, 24 h, 25° C.) was 8.75 Area %. For the same compound, the Appearance (0.1M HCl, 24 h, 70° C.) was “slightly colored solution”, the “Organic impurities, single” value (0.1M HCl, 24 h, 70° C.) was 22.82 Area % and the “Organic impurities, sum of all” value (0.1M HCl, 24 h, 70° C.) was 92.49 Area %. For the same compound, the Appearance (0.1M HCl, Initial) was “slightly colored solution”, the “Organic impurities, single” value (0.1M HCl, Initial) was 1.13 Area % and the “Organic impurities, sum of all” value (0.1M HCl, Initial) was 5.87 Area %. For the same compound, the Appearance (0.1M NaOH, 1 week, 25° C.) was “slightly colored solution”, the “Organic impurities, single” value (0.1M NaOH, 1 week, 25° C.) was 22.03 Area % and the “Organic impurities, sum of all” value (0.1M NaOH, 1 week, 25° C.) was 86.64 Area %. For the same compound, the Appearance (0.1M NaOH, 1 week, 70° C.) was “slightly colored solution”, the “Organic impurities, single” value (0.1M NaOH, 1 week, 70° C.) was 32.63 Area % and the “Organic impurities, sum of all” value (0.1M NaOH, 1 week, 70° C.) was 99.90 Area %. The Appearance (0.1M NaOH, 24 h, 25° C.) was “slightly colored solution”, the “Organic impurities, single” value (0.1M NaOH, 24 h, 25° C.) was 10.02 Area % and the “Organic impurities, sum of all” value (0.1M NaOH, 24 h, 25° C.) was 45.40 Area %. The Appearance (0.1M NaOH, 24 h, 70° C.) was “slightly colored solution”, the “Organic impurities, single” value (0.1M NaOH, 24 h, 70° C.) was 23.94 Area % and the “Organic impurities, sum of all” value (0.1M NaOH, 24 h, 70° C.) was 99.88 Area %. For the same compound, the Appearance (0.1M NaOH, Initial) was “slightly colored solution”, the “Organic impurities, single” value (0.1M NaOH, Initial) was 6.51 Area % and the “Organic impurities, sum of all” value (0.1M NaOH, Initial) was 30.72 Area %. For the same compound, the Appearance (Buffer pH 7, 1 week, 25° C.) was “slightly colored turbid”, the “Organic impurities, single” value (Buffer pH 7, 1 week, 25° C.) was 0.82 Area % and the “Organic impurities, sum of all” value (Buffer pH 7, 1 week, 25° C.) was 4.85 Area %. The Appearance (Buffer pH 7, 1 week, 70° C.) was “slightly colored solution”, the “Organic impurities, single” value (Buffer pH 7, 1 week, 70° C.) was 39.01 Area % and the “Organic impurities, sum of all” value (Buffer pH 7, 1 week, 70° C.) was 97.65 Area %. For the same compound, the Appearance (Buffer pH 7, 24 h, 25° C.) was “slightly colored turbid”, the “Organic impurities, single” value (Buffer pH 7, 24 h, 25° C.) was 0.20 Area % and the “Organic impurities, sum of all” value (Buffer pH 7, 24 h, 25° C.) was 3.22 Area %. The Appearance (Buffer pH 7, 24 h, 70° C.) was “slightly colored solution”, the “Organic impurities, single” value (Buffer pH 7, 24 h, 70° C.) was 23.25 Area % and the “Organic impurities, sum of all” value (Buffer pH 7, 24 h, 70° C.) was 56.06 Area %. For the same compound, the Appearance (Buffer pH 7, Initial) was “slightly colored turbid”, the “Organic impurities, single” value (Buffer pH 7, Initial) was 0.23 Area % and the “Organic impurities, sum of all” value (Buffer pH 7, Initial) was 3.15 Area %. The Appearance (Water, 1 week, 25° C.) was “slightly colored solution”, the “Organic impurities, single” value (Water, 1 week, 25° C.) was 0.54 Area % and the “Organic impurities, sum of all” value (Water, 1 week, 25° C.) was 5.33 Area %. The Appearance (Water, 1 week, 70° C.) was “slightly colored solution”, the “Organic impurities, single” value (Water, 1 week, 70° C.) was 45.44 Area % and the “Organic impurities, sum of all” value (Water, 1 week, 70° C.) was 98.59 Area %. For the same compound, the Appearance (Water, 24 h, 25° C.) was “slightly colored solution”, the “Organic impurities, single” value (Water, 24 h, 25° C.) was 0.23 Area % and the “Organic impurities, sum of all” value (Water, 24 h, 25° C.) was 3.43 Area %. The Appearance (Water, 24 h, 70° C.) was “slightly colored solution”, the “Organic impurities, single” value (Water, 24 h, 70° C.) was 25.89 Area % and the “Organic impurities, sum of all” value (Water, 24 h, 70° C.) was 58.00 Area %. For the same compound, the Appearance (Water, Initial) was “slightly colored solution”, the “Organic impurities, single” value (Water, Initial) was 0.25 Area % and the “Organic impurities, sum of all” value (Water, Initial) was 2.79 Area %. It also gave an IC50 (A549) of 37 nM, an IC50 (KPL4) of 3 nM and an IC50 (BT20) of 6 nM. For the same compound, the IC50 (H460) was 46 nM, the IC50 (BT474) was 5 nM and the “stability in solid form” value [1] was “stable in solid form”. The therm. stab. solid ([1]; 1 w @ 90° C.) was “++”, the IC50 (MCF7) was 27 nM and the IC50 (U87MG) was 85 nM.
